A short description of data set [1]: In vitro axitinib release under non-sink simulated physiological conditions. Format: physicochemical. The following applies: pH 7.2, aqueous buffer, thermodynamic from solid; PBS from control implant release after 20 or 30 days at 37° C. As for the experimental part: Three exemplarily selected implant formulations were examined (Table 1). Implant variants #1 and 2 were examined using one implant, implant variant #3 using one and two implants (four conditions in total). All conditions were conducted in duplicate.
In vitro released and non-released axitinib was determined for each group without (control) and with daily release media sampling.
For control implant release, samples were placed in tubes. Five mL of PBS (pH 7.2) were added to each tube on day 0 and the tubes were covered with a lid. Samples were then placed in a 37° C. incubator and gently rocked for 20 (1× implant #3) or 30 days (implant #1 and #2, 2× implant #3). At the end of the test period, the PBS was removed (1 mL PBS was saved for testing). One mL of ethanol was added to the residual sample. Both PBS samples and residual samples were tested for axitinib amount released.
For daily implant release, samples were placed in tubes. Five mL of PBS were added to each tube on day 0 and the tubes were covered with a lid. Samples were then placed in a 37° C. incubator and rocked gently. After 24 hours, 4 mL of PBS were removed from each sample from which 1 mL was used for testing and the remaining 3 mL were disposed. Four mL of fresh PBS were added back into each tube. This process was repeated for 20 (1× implant #3) or 30 days (implant #1 and #2, 2× implant #3). […]

The conditions of data set [2]: Rugo et al. 2005; cited from earlier work.
The conditions of data set [3]: 1.25 mg intravitreal dose (Sinapis et al., 2011); cited from earlier work.
Data set [4] deals with VEGF-induced vascular leakage. Nature of the data set: VEGF challenge, vascular leakage scored by fluorescein angiography. The data set is classed as in vivo, Dutch belted rabbits. Particulars: rabbit; 1.25 mg Avastin intravitreal only (group 3).
The conditions of data set [5]: in vivo; cited from earlier work.

The values that follow come from US20220079876A1, “OCULAR IMPLANT CONTAINING A TYROSINE KINASE INHIBITOR” (Ocular Therapeutix, Inc., priority 2020, published 2022).

Converted amounts (≈) assume the structure as drawn.

By solubility is commonly meant the dissolved amount per volume that the medium holds. Lower therefore signals little dissolved substance. Take `CNC(=O)c1ccccc1Sc1ccc2c(/C=C/c3ccccn3)n[nH]c2c1` [axitinib, N-methyl-2-[3-((E)-2-pyridin-2-yl-vinyl)-1H-indazol-6-ylsulfanyl]-benzamide]: the solubility in data set [1] was 0.24 to 0.4 µg/mL (≈ 0.621 to 1.03 µM). The “Clearance half-life (t1/2)” value in data set [2] was “a few hours”.
As to Avastin®: anti-VEGF therapeutic, the Half-life in rabbits in data set [3] is 158 h. In data set [4], the “Duration of effect post injection” value is on record as at most 3 months and the “Vascular leakage after VEGF challenge, after 3 months” value is recorded as “vascular leakage re-occurred”.
As for “aflibercept: anti-VEGF agent, aflibercept injection by Regeneron”, the “t1/2 in the human eye” value in data set [5] is listed as “several days”.
“ranibizumab: anti-VEGF agent, ranibizumab injection by Genentech”: the “t1/2 in the human eye” value in data set [5] was “several days”.
